The values below come from US8703829B2, “Therapeutic compounds” (University of Louisville Research Foundation, Inc., priority 2007, dated 2014).

SMILES strings stand for the structures.

Assay [1] relates to A549 human non-small cell lung cancer xenografts. Format: in vivo. From the text:
FIG. 2. […] (A) Tumor growth appeared to be reduced in mice treated with the compound of Example 1, but the effect was not statistically significant (p≧0.13). […] Compare with the mean±SE in the control group.
Test F In-vivo Effects of Compound of Example 1.
The following study was designed to assess toxicity and activity in female nude mice bearing A549 human non-small cell lung cancer xenografts. Athymic nude mice were inoculated subcutaneously (s.c.) with A549 cells and treatment began after small tumors were visible. The compound of Example 1 was prepared at 100 mg/ml or 50 mg/ml in DMSO and diluted 1:10 with sterile PBS. Mice were treated by intraperitoneal (i.p.) injections of 100 μl of these solutions, equivalent to approximately 25 mg/kg or 50 mg/kg; the control group received identical injections of vehicle (10% DMSO in PBS). Mice received injections of the compound of Example 1 or vehicle five times per week (once per day, except on weekends) for up to 30 injections. […] Evaluating the long-term outcome was complicated by the fact that several animals in the compound of Example 1 treated groups developed tumor necrosis/ulceration and had to be euthanized before the end of the experiment, as required by IACUC protocol. This tumor necrosis is believed to be treatment-related as it occurred in 5/12 treated animals, but 0/6 of the control group. […] The overall response seemed to be equivalent or better in the low dose group compared with the high dose group, but that may be consistent with the mechanism of action, since a similar effect has been observed for decitabine in humans.

Assay [2] concerns total DNA methyltransferase activity in A549 non-small cell lung cancer cells. As to the kind of experiment: Test E experiments 1 and 2: DNA methyltransferase activity of nuclear extracts from treated A549 cells (EpiQuik kit). Format: cell-based, human. The protocol: (§1) Test E The Methyltransferase Activity of the Compound of Example 1 was Evaluated as Follows.
(§2) For experiments 1 and 2, A549 non-small cell lung cancer cells were incubated with the compound of Example 1 (1 μM final concentration) or vehicle (untreated) for 2 h and nuclear extracts were prepared by standard methods. The total DNA methyltransferase activity of the extracts was measured using EpiQuik™ DNA Methyltransferase Activity/Inhibition Assay Kit (Epigentek, Brooklyn, N.Y.), according to the manufacturer's directions. For experiment 3, the assay was carried out using purified HeLa nuclear extracts in the presence of the compound of Example 1 (500 nM final concentration) or vehicle (untreated).
(§3) The assay involves incubation of nuclear extracts (as a source of DNA methyltransferase activity) with immobilized DNA substrate in the presence of Adomet (methyl donor). The DNA methyltransferase activity was measured by determining levels of 5-methylcytosine in the DNA substrate using a primary antibody to 5-methylcytosine and a secondary antibody for colorimetric detection at 450 nm.

Assay [3] deals with panel of 60 human tumor cell lines. The assay is described as follows: Test D: screen against a panel of 60 human tumor cell lines. Format: cell-based. The text has this:
Test D Anti-Cancer Activity
The compound of Example 1 below was screened against a panel of 60 human tumor cell lines.

In assay [4] the test system is DNA methyltransferase activity of HeLa nuclear extracts. As to the kind of experiment: Test E experiment 3: DNA methyltransferase activity of purified HeLa nuclear extracts incubated in vitro with compound (EpiQuik kit). Format: biochemical. Particulars: experiment 3: 20 μg HeLa nuclear extracts incubated in vitro with 500 nM; untreated 0.264. The protocol:
as §1, §2, §3

What is called GI50 is the concentration that inhibits growth by half. Read a high GI50 as less potent growth inhibition. Regarding `CCCCCC(O)C#CC(F)(F)Br` (stereo not drawn) [Example 1, 1-bromo-1,1-difluoro-non-2-yn-4-ol], the “tumor necrosis/ulceration, treated animals affected” value in assay [1] (approx. 25 or 50 mg/kg i.p., 0/6 in the control group) is 5/12. The “tumor growth compared to control-treated mice” value in assay [1] (approx. 25 or 50 mg/kg i.p., difference not statistically significant (p≧0.13)) is on record as “grew slower”. In assay [1] (treated mice euthanized early due to tumor necrosis), the “size of ulcerated tumors versus control group at the same time point” value is “substantially smaller”. Besides, the “Relative DNA Methyltransferase Activity” value was 0.073 in assay [2] (experiment 1: nuclear extracts from lung cancer cells treated 1 μM for 2 h, untreated 0.114); 0.075 in assay [2] (experiment 2 (repeat): nuclear extracts from lung cancer cells treated 1 μM for 2 h, untreated 0.122); 0.092 in assay [4]. In addition, the GI50 in assay [3] (Homo sapiens, all seven breast cancer cell lines, including a doxorubicin-resistant line) fell in the range of 10 to 66 nM. Besides, the “activity by tumor type” value in assay [3] (breast, prostate, colon and brain (CNS) tumor cells) is given as “highly active”; in assay [3] (other tumor types, e.g. melanomas), “less potent”.
